Measurements taken from patent publication US20060204957A1, “Mta1s, a steriod hormone receptor corepressor” (priority 2002, published 2006).

Legend:
ERα = biological target: T1, ERα (Homo sapiens, UniProt P03372); details: yeast AH109 two-hybrid
T1 sequence (P03372 1-536): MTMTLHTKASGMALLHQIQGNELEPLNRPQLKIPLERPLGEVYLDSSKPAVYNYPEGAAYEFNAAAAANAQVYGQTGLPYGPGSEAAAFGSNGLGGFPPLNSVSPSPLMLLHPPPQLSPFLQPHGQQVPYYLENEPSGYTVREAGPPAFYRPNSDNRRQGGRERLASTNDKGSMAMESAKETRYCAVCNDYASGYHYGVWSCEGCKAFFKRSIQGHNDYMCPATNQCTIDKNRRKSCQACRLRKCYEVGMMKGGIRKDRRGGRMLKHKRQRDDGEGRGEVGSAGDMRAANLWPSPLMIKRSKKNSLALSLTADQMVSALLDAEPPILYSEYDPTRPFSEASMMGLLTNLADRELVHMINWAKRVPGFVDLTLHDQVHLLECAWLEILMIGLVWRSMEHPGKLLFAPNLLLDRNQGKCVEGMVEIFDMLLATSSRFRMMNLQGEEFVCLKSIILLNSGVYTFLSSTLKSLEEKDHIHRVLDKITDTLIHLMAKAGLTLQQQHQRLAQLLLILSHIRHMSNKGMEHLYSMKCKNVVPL
T1 sequence (Q13330 1-429 isoform Q13330-2 partner limits assumed): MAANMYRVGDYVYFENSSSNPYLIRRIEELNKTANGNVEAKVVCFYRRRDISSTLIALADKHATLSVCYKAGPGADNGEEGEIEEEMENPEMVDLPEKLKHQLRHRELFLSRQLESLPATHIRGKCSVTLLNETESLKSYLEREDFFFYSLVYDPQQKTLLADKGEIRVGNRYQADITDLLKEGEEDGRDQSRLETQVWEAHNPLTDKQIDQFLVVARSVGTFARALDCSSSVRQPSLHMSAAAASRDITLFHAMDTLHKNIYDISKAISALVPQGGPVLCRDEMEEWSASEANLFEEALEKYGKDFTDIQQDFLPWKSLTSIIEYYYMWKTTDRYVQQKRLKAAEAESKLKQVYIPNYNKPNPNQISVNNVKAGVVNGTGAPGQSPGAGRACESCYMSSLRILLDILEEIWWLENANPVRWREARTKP

ZR-75R cells = test: Growth of ZR-75R cells in monolayer culture; assay type: cell-based, human
Description: FIGS. 11A-11E. MTA1s may stimulate aggressive phenotypes in breast cancer cells. FIG. 11A illustrates an example of MTA1s overexpression inhibiting PRE-driven but not RARE-driven transcription. FIG. […] illustrates the Growth-rate of ZR/pcDNA or ZR/MTA1s cells in monolayer culture in the presence of E2 alone or with ICI 182780 (10^−9 M for 4 days). FIG. 11C show an exemplary effect of MTA1s expression on anchorage independent growth of ZR/pcDNA and ZR/MTA1s cells grown in 10% serum in the presence or absence of ICI 182780 (10^−9 M) or 4HT (10^−8 M) for 14 days. […] FIG. 11E illustrates that MTA1s may induce tumorigenesis of breast cancer cells. 5×10^6 cells were subcutaneously inoculated in the athymic nude mice (n=10), and tumor volumes at day 21 were recorded.

ER = test: Confocal localization of ER in ZR-75R clones after estradiol; assay type: cell-based, human
Experimental: FIGS. 3A-3H. MTA1s typically localizes in the cytoplasm and interacts with ER. FIG. 3A illustrates an example of confocal microscopy of MCF-7 cells transiently transfected with T7-tagged MTA1 or MTA1s constructs. FIG. 3B illustrates exemplary expression of T7-MTA1s in ZR75 clones. FIG. 3C illustrates exemplary nuclear and cytoplasmic fractions that were assessed by immunoblotting with the indicated antibodies. […] FIG. 3F illustrates exemplary GST pull-down assays. […] FIG. 3H illustrates an example of expression of MTA1s and ERα in indicated cells by confocal microscopy.
The cellular localization of T7-MTA1s, and ER was determined using indirect immunofluorescence as described in Mazumdar et al., 2001, herein incorporated by reference. Cells were treated with or without anti-T7 mAb or ER Ab followed by 546-Alexa-labeled goat anti-mouse Ab or 488-Alexa.

[1] = test system: PRE-mediated transcription; test: PRE-mediated transcription in ZR-75R cells; assay type: cell-based, human; details: MTA1s-overexpressing ZR-75R cells
Experimental: Transfection was performed using a Fugene-6 kit (Roche Biochemical, New Jersey) as per the manufacturer's instructions. Cells were transiently cotransfected with a reporter construct and (β-galactosidase, and assayed for luciferase activity as described.

## C[C@]12CC[C@@H]3c4ccc(O)cc4C[C@@H](CCCCCCCCC[S+]([O-])CCCC(F)(F)C(F)(F)F)[C@H]3[C@@H]1CC[C@@H]2O (stereo partly drawn) [ICI 182780]
ERα
  effect on interaction between ERα and MTA1s: failed to block

## C[C@]12CC[C@@H]3c4ccc(O)cc4CC[C@H]3[C@@H]1CC[C@@H]2O [estradiol, 17β-estradiol]
ZR-75R cells; ZR-75R cells expressing MTA1s
  cell growth response: did not respond
ZR-75R cells; ZR-75R cells expressing control vector
  cell growth: stimulated
ER; ZR-75R/vector cells
  redistribution of ER to the nucleus: rapidly redistributed the ER to the nucleus
ER; estradiol-activated ZR-75R/MTA1s cells
  cells in which ER was not redistributed to the nucleus: over 90%

## CC(=O)[C@H]1CC[C@H]2[C@@H]3CCC4=CC(=O)CC[C@]4(C)[C@H]3CC[C@]12C [progesterone]
[1]
  stimulation of PRE-mediated transcription: failed to stimulate
